# Measured values: patent publication US20140271734A1, “BILE ACID RECYCLING INHIBITORS FOR TREATMENT OF BARRETT'S ESOPHAGUS AND GASTROESOPHAGEAL REFLUX DISEASE” (LUMENA PHARMACEUTICALS, INC., priority 2013, published 2014)
# Experiments:
# serum bile acids = test: Fasting and post-prandial serum bile acids in children and adolescents on LUM001; format: in vivo, human
# Procedure: LUM001 has been administered to forty patients under the age of 18 years old. […] The drug was administered once-a-day (QD) in the morning for fourteen days. […] These doses are similar to those using to treat patients with Barrett's esophagus or GERD.
# The efficacy of LUM001 was determined by measuring total serum bile acids after eight days of dosing in children and adolescents under the age of eighteen. Thirty minutes before the next drug administration, at approximately 8 am in the morning, serum bile acid levels were measured. The child had refrained from food for 12 hours prior to this sample thus providing a fasted level of serum bile acid. After breakfast, serum bile acids were measured for up to the next 4 hours (8 am to noon) and the peak serum bile acid concentration noted.
# fecal bile acid (FBA) = test: Fecal bile acids in rats, LUM001 Q.D. for four days; format: in vivo, Wistar rats
# Procedure: Male Wistar rats (Charles River Laboratories) weighing 275-300 grams were single-housed in a constant temperature environment with alternating 12 hour light and dark cycles. All animals had continuous access to a commercial rodent diet as well as water. In each study rats were randomly assigned to either vehicle or treatment groups and were administered intragastric doses (Q.D. gavage) of drug dissolved in aqueous 0.2% (v/v) Tween 80 (2 ml kg body weight). The animals were dosed in the morning between 9:00 and 10:00 a.m. for four consecutive days. Fecal samples were collected on papers underneath each cage during the final 48 hour period of the study and analyzed for bile acid content.
# Cage papers containing the 48-hour fecal samples were collected at approximately 9:00 a.m. on the final day and used to determine the individual fecal bile acid (FBA) concentration for each animal. Fecal samples from each rat were weighed and a weight of distilled water (1 gram/mL) equal to 2 times the total weight of feces was added to each sample container (e.g., 20 mL water to 10 grams feces). The containers were stored overnight at 4° C. Each sample was homogenized for approximately 45 seconds using a small food processor to yield a homogeneous slurry. 1.4 grams of the homogenate was weighed into 16×100 polypropylene tubes and 2.6 mL of tertiary butanol/distilled water (2:0.6) added to yield a final concentration of 50% (v/v) tertiary butanol in water. The sample was extracted by incubation for 45 minutes in a 37° C. water bath, and subjected to centrifugation at 3000×g for 13 minutes and the supernatant extract collected.
# The concentration of bile acids […] in the extract was determined using a 96-well enzymatic assay system (4,5). 20 μl aliquots of each butanol extract was added to two sets of triplicate wells in a 96-well assay plate (one set on each half of the plate). Standardized sodium taurocholate solutions (0.2 and 0.9 mM) and standardized fecal extract solutions (previously made from pooled fecal samples collected from control and drug-treated rats) were analyzed in parallel to provide a bile acid standard curve and internal quality control samples, respectively. 20 μl aliquots of the sodium taurocholate standard were serially diluted to generate a standard curve and were added to two separate sets of triplicate wells.
# To each well, 230 μl of reaction mixture containing 1M hydrazine hydrate, 0.1 M pyrophosphate and 0.46 mg/ml NAD was added. To start the reaction, a 50 μl aliquot of either 3a-hydroxysteroid dehydrogenase enzyme (HSD; 0.8 units/ml) or assay buffer (0.1 M sodium pyrophosphate) was added to one set of triplicate wells for each sample, respectively, with the set containing the assay buffer serving as the reaction blank. All reagents were obtained from Sigma Chemical Co., St. Louis, Mo. Following a 60 minute incubation at room temperature, the optical density at 340 nm was measured and the mean of each set of triplicate wells was calculated. The difference in optical density between the corresponding wells containing the HSD enzyme and the wells containing the assay buffer was used to determine the bile acid concentration (mM) of each sample by comparison to the sodium taurocholate standard curve. The bile acid concentration of the extract and the weight of the fecal homogenate (grams) were used to calculate FBA concentration in mmoles/day for each animal. The mean FBA concentration (mmoles/day) of the vehicle group was subtracted from the FBA concentration of individual rats in a treatment group to yield the increase in FBA concentration due to drug treatment for that animal. A mean value for the increase in FBA for each group was determined and compared to the vehicle group used, to determine compound dosing efficacy. Data was the average from the two days of fecal collection (Mean±SEM, n=4-20). […]
# plasma triglycerides = test: Plasma triglycerides in ZDF rats, week 3; format: in vivo; details: twice daily oral gavage, no dose-related response
structure (smiles),measurement,setting,value
CCCCC1(CCCC)CS(=O)(=O)c2ccc(N(C)C)cc2[C@@H](c2ccc(OCc3ccc(C[N+]45CCN(CC4)CC5)cc3)cc2)[C@H]1O [LUM001],Decrease of average fasting serum bile acid vs placebo patients,serum bile acids; LUM001 treated patients,24%
same,Decrease of average post-prandial peak serum bile acid vs placebo patients,serum bile acids; LUM001 treated patients,23%
same,Average post-prandial peak serum bile acid level,serum bile acids; LUM001 treated patients (placebo 11.9),9.2 µmol/L
same,Morning Post-prandial peak serum bile acid,"serum bile acids; Patient 304, 1 mg, after eight days of dosing",8.4 µmol/L
same,Morning Post-prandial peak serum bile acid,"serum bile acids; Patient 308, 1 mg, after eight days of dosing",9.3 µmol/L
same,Morning Post-prandial peak serum bile acid,"serum bile acids; Patient 309, 1 mg, after eight days of dosing",10.0 µmol/L
same,Morning Post-prandial peak serum bile acid,"serum bile acids; Patient 401, 2.5 mg, after eight days of dosing",6.8 µmol/L
same,Fasting and post-prandial peak levels of serum bile acids,"serum bile acids; children and adolescents, after eight days of dosing",generally decrease both the fasting and post-prandial peak levels of serum bile acids
same,Fecal Bile Acids,fecal bile acid (FBA); Q.D. 0.0006 mg/kg/day,34 µmol/day
same,"Fecal Bile Acids, Increase over Vehicle (Delta)",fecal bile acid (FBA); Q.D. 0.0006 mg/kg/day,12.1 µmol/day
same,Fecal Bile Acids,fecal bile acid (FBA); Q.D. 0.002 mg/kg/day,26.6 µmol/day
same,"Fecal Bile Acids, Increase over Vehicle (Delta)",fecal bile acid (FBA); Q.D. 0.002 mg/kg/day,4.1 µmol/day
same,Fecal Bile Acids,fecal bile acid (FBA); Q.D. 0.003 mg/kg/day,31.3 µmol/day
same,"Fecal Bile Acids, Increase over Vehicle (Delta)",fecal bile acid (FBA); Q.D. 0.003 mg/kg/day,10.7 µmol/day
same,Fecal Bile Acids,fecal bile acid (FBA); Q.D. 0.008 mg/kg/day,25.8 µmol/day
same,"Fecal Bile Acids, Increase over Vehicle (Delta)",fecal bile acid (FBA); Q.D. 0.008 mg/kg/day,5.9 µmol/day
same,Fecal Bile Acids,fecal bile acid (FBA); Q.D. 0.016 mg/kg/day,41.6 µmol/day
same,"Fecal Bile Acids, Increase over Vehicle (Delta)",fecal bile acid (FBA); Q.D. 0.016 mg/kg/day,24.7 µmol/day
same,Fecal Bile Acids,fecal bile acid (FBA); Q.D. 0.04 mg/kg/day,44 µmol/day
same,"Fecal Bile Acids, Increase over Vehicle (Delta)",fecal bile acid (FBA); Q.D. 0.04 mg/kg/day,21.7 µmol/day
same,Fecal Bile Acids,fecal bile acid (FBA); Q.D. 0.08 mg/kg/day,55.6 µmol/day
same,"Fecal Bile Acids, Increase over Vehicle (Delta)",fecal bile acid (FBA); Q.D. 0.08 mg/kg/day,35.2 µmol/day
same,Fecal Bile Acids,fecal bile acid (FBA); Q.D. 0.2 mg/kg/day,62.7 µmol/day
same,"Fecal Bile Acids, Increase over Vehicle (Delta)",fecal bile acid (FBA); Q.D. 0.2 mg/kg/day,40.8 µmol/day
same,Fecal Bile Acids,fecal bile acid (FBA); Q.D. 0.4 mg/kg/day,62.3 µmol/day
same,"Fecal Bile Acids, Increase over Vehicle (Delta)",fecal bile acid (FBA); Q.D. 0.4 mg/kg/day,47 µmol/day
same,Fecal Bile Acids,fecal bile acid (FBA); Q.D. 2 mg/kg/day,71.6 µmol/day
same,"Fecal Bile Acids, Increase over Vehicle (Delta)",fecal bile acid (FBA); Q.D. 2 mg/kg/day,54.6 µmol/day
same,Fecal Bile Acids,"fecal bile acid (FBA); all doses, Q.D. gavage for four days",significantly increased fecal bile acids for all doses
"CCCC[C@]1(CC)CS(=O)(=O)c2ccc(N(C)C)cc2[C@@H](c2cccc(NC(=O)N[C@@H]3O[C@H](COS(=O)(=O)[O-])[C@@H](O)[C@H](OCc4ccccc4)[C@H]3O)c2)[C@H]1O.CCO.O.[K+] [LUM002, potassium((2R,3R,4S,5R,6R)-4-benzyloxy-6-{3-[3-((3S,4R,5R)-3-butyl-7-dimethylamino-3-ethyl-4-hydroxy-1,1-dioxo-2,3,4,5-tetrahydro-1H-benzo[b]thiepin-5-yl)-phenyl]-ureido}-3,5-dihydroxy-tetrahydro-pyran-2-ylmethyl)sulphate ethanolate, hydrate]",Fasting plasma triglycerides,plasma triglycerides,statistically significant elevations
